One data set concerns the target T1, Human S1P1 receptor (Homo sapiens, UniProt P21453).
T1 construct: expressed in transfected cells; host or cells: HEK 293 or CHOK1 cells (membranes)
The experiment in a line: GTP-γ-35S binding, agonist activity on S1P1 receptor. Type of data set: biochemical. To be noted: for EC50: membranes of transfected HEK 293 or CHOK1 cells, [35S]GTP-γ-S binding; for intrinsic activity (i.a.) S1P1: relative to the maximal stimulation elicited by S1P. The source says: (§1) Human S1P1-5 receptor subtypes were stably expressed in HEK 293 or CHOK1 cells following transfection with corresponding plasmid constructs. Although the native cells somewhat respond to S1P, the level of expression and responsiveness of the antibiotic-resistant transfected cell lines that were selected is much higher.
(§2) When cultivated cells reached 80% confluence, they were collected and, after lysis, cell membranes were collected by centrifugation and washed in buffer containing antiproteases.
(§3) GTP-γ-35 S binding was performed using ˜5 μg protein of cell membranes suspended in 50 mM tris-HCl pH 7.5 containing 10 mM Mg Cl2, 100 mM NaCl and 10 μM GDP. The radioligand was 0.025 nM [35S] GTP-γ-S and non specific binding determined in the presence of 10 μM non-radioactive GTP-γ-S. S1P and receptor agonists enhance the specific binding whereas inverse agonists reduce it. The maximal stimulation elicited by S1P was taken as a reference to define full or partial agonism and calculate the intrinsic activity (i.a.) of compounds.
A general note: GTPγS is a poorly hydrolysed GTP analogue; its binding reports G protein activation.

In the next data set the target is T2, Human S1P3 receptor (Homo sapiens, UniProt Q99500).
T2 construct: expressed in transfected cells; host or cells: HEK 293 or CHOK1 cells (membranes)
T2 sequence (Q99500 whole entry): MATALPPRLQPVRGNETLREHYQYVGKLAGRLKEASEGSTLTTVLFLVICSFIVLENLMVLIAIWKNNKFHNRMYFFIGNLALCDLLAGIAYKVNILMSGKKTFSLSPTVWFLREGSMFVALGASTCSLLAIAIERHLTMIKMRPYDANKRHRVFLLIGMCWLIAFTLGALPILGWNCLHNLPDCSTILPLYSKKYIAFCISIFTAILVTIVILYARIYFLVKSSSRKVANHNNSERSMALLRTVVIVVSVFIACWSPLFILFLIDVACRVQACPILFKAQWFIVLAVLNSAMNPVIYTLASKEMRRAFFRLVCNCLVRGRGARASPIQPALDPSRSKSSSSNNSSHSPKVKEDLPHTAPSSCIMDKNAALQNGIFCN
The experiment in a line: GTP-γ-35S binding, agonist activity on S1P3 receptor. To be noted: for EC50: membranes of transfected HEK 293 or CHOK1 cells, [35S]GTP-γ-S binding; for intrinsic activity (i.a.) S1P3: relative to the maximal stimulation elicited by S1P. In kind it is biochemical.
Description: as §1, §2, §3

In a further data set the target is T3, Human S1P2 receptor (Homo sapiens, UniProt O95136).
T3 construct: expressed in transfected cells; host or cells: HEK 293 or CHOK1 cells (membranes)
T3 sequence (O95136 whole entry): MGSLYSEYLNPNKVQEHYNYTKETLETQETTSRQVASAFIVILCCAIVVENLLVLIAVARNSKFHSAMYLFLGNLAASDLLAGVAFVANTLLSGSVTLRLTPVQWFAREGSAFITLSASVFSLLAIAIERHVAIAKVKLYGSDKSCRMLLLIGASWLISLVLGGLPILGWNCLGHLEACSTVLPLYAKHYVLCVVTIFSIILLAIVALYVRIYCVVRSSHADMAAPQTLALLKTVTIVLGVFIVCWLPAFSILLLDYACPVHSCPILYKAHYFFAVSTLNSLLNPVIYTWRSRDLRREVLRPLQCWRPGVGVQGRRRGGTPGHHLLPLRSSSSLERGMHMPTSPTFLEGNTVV
The experiment in a line: GTP-γ-35S binding, agonist activity on S1P2 receptor. Particulars: for EC50: membranes of transfected HEK 293 or CHOK1 cells, [35S]GTP-γ-S binding; for intrinsic activity (i.a.) S1P2: relative to the maximal stimulation elicited by S1P. In kind it is biochemical.
Description: as §1, §2, §3

A further data set deals with circulating lymphocytes. Particulars: in vivo; cited from earlier work.
For data set [1] the following is noted: J. Am. Soc. Nephrol., 13, 1073, 2002; cited from earlier work.

T1 sequence (P21453 whole entry): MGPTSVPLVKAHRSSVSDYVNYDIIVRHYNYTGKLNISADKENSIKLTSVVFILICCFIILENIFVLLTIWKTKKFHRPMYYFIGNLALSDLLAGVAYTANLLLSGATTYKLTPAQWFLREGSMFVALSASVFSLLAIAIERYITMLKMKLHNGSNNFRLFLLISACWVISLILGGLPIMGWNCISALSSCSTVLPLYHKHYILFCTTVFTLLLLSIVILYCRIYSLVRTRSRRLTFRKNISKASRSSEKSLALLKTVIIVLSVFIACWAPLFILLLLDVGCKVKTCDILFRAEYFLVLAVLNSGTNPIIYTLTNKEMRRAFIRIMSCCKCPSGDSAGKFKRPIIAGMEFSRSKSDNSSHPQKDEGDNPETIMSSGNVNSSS

Turning to `CCCCCCCCCc1ccc(CNC2CCC(C(=O)O)(C(=O)O)C2)cc1` (centres unmarked) [Example 3, 3-(4-nonylbenzylamino)cyclopentane-1,1-dicarboxylic acid], on Human S1P1 receptor, it took 6 nM to reach a half-maximal effect (EC50) and the “intrinsic activity (i.a.) S1P1” value is recorded as 1. Further, at Human S1P3 receptor, the EC50 is greater than 1000 nM and the “intrinsic activity (i.a.) S1P3” value is roughly 0.3. Besides, at Human S1P2 receptor, the EC50 came to 4 nM and the “intrinsic activity (i.a.) S1P2” value is 1.
On to `CCCCCCCCc1ccc(CCC(N)(CO)CO)cc1` [FTY 720], for which, in the data set on circulating lymphocytes, the circulating lymphocytes entry is recorded as “decrease”. Also, the adverse event entry in data set [1] is on record as “transient asymptomatic bradycardia”.
Take `CCCCCCCCCCc1ccc(CNC2CCC(C(=O)O)(C(=O)O)C2)cc1` (centres unmarked) [Example 12, 3-(4-decylbenzylamino)cyclopentane-1,1-dicarboxylic acid]: on Human S1P1 receptor, the EC50 stood at 13 nM and the “intrinsic activity (i.a.) S1P1” value was 1. At Human S1P3 receptor, the EC50 was greater than 1000 nM and the “intrinsic activity (i.a.) S1P3” value is roughly 0.3. On Human S1P2 receptor, the concentration for a half-maximal effect (EC50) came out at 5 nM and the “intrinsic activity (i.a.) S1P2” value was determined as 1.

As a reminder, the EC50 is the concentration giving half of the maximal effect. A lower EC50 goes with greater potency.

Values taken from patent US20090264469A1, “NOVEL DICARBOXYLIC ACID DERIVATIVES” (BIO-PROJET, priority 2004, published 2009).
